Test system: 171881-019-R-J1-PDC complex spheroid growth, % test/control
Assay: Anticancer human tumor 171881-019-R-J1-PDC patient-derived invasive breast carcinoma cell line growth inhibition [Asc]
Conditions: for IC50: curve of first compound; for viability, T/C: stronger effect = lower value
Summary of the method: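 Tumor cells were grown as multicellular spheroids with stromal HUVEC and mesenchymal stem cells and treated singly or in combination. Concentrations fell in half-log steps from the clinical Cmax, or from 10 microM where none was known.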
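Wherever viability, T/C is given: spheroids exposed to compounds for 7 days.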

Cc1nc(N2CCC3(CC2)COC(C)C3N)c(CO)nc1Sc1ccnc(N)c1Cl (stereo not given) + Cc1c(S(C)(=O)=O)c(-c2cc(F)cc(N3CCN(c4ccc(NS(=O)(=O)c5ccc(NC(CCN6CCC(C(=O)OCCCP(=O)(O)O)CC6)CSc6ccccc6)c(S(=O)(=O)C(F)(F)F)c5)cc4)CC3)c2)c(-c2ccc(Cl)cc2)n1C(C)C gave an IC50 (second compound 0.1 µM) of over 3000 nM, an IC50 (second compound 0.316 µM) of over 3000 nM and an IC50 (second compound 1 µM) of over 3000 nM. It also gave an IC50 (second compound 3.16 µM) of 2200 nM, an IC50 (second compound 10 µM) of 884 nM and a viability, T/C (second compound 0.1 µM, first compound 0.00949 µM) of 127%. It also gave a viability, T/C (second compound 0.1 µM, first compound 0.03 µM) of 182%, a viability, T/C (second compound 0.1 µM, first compound 0.0949 µM) of 201% and a viability, T/C (second compound 0.1 µM, first compound 0.3 µM) of 141%. For the same compound, the viability, T/C (second compound 0.1 µM, first compound 0.949 µM) was 118%, the viability, T/C (second compound 0.1 µM, first compound 3 µM) was 102% and the viability, T/C (second compound 0.316 µM, first compound 0.00949 µM) was 161%. It also gave a viability, T/C (second compound 0.316 µM, first compound 0.03 µM) of 223%, a viability, T/C (second compound 0.316 µM, first compound 0.0949 µM) of 187% and a viability, T/C (second compound 0.316 µM, first compound 0.3 µM) of 137%. It also gave a viability, T/C (second compound 0.316 µM, first compound 0.949 µM) of 97.3%, a viability, T/C (second compound 0.316 µM, first compound 3 µM) of 75.4% and a viability, T/C (second compound 1 µM, first compound 0.00949 µM) of 181%. It also gave a viability, T/C (second compound 1 µM, first compound 0.03 µM) of 201%, a viability, T/C (second compound 1 µM, first compound 0.0949 µM) of 144% and a viability, T/C (second compound 1 µM, first compound 0.3 µM) of 104%. The viability, T/C (second compound 1 µM, first compound 0.949 µM) was 80.4%, the viability, T/C (second compound 1 µM, first compound 3 µM) was 66.6% and the viability, T/C (second compound 3.16 µM, first compound 0.00949 µM) was 180%. It also gave a viability, T/C (second compound 3.16 µM, first compound 0.03 µM) of 174%, a viability, T/C (second compound 3.16 µM, first compound 0.0949 µM) of 113% and a viability, T/C (second compound 3.16 µM, first compound 0.3 µM) of 80.5%. The viability, T/C (second compound 3.16 µM, first compound 0.949 µM) was 59%, the viability, T/C (second compound 3.16 µM, first compound 3 µM) was 51.7% and the viability, T/C (second compound 10 µM, first compound 0.00949 µM) was 177%. For the same compound, the viability, T/C (second compound 10 µM, first compound 0.03 µM) was 148%, the viability, T/C (second compound 10 µM, first compound 0.0949 µM) was 112% and the viability, T/C (second compound 10 µM, first compound 0.3 µM) was 76.7%. The viability, T/C (second compound 10 µM, first compound 0.949 µM) was 41.8% and the viability, T/C (second compound 10 µM, first compound 3 µM) was 40.5%.

Source: PubChem BioAssay AID1963428 (Molecular Pharmacology Branch, DTP, NCI, 2024)
